In US10842151B2, “Small molecule compound for enhancing plant stress resistance” (SHANGHAI INSTITUTES FOR BIOLOGICAL SCIENCES, CHINESE …, priority 2015, dated 2020):

Columns and labels:
Kyoho grapes = experiment: Grape coloring experiment (anthocyanin content); type: in vivo; conditions: aqueous suspension; vs fresh water control
Description: The grapes used in the experiment were commercially available variety of Kyoho. According to weather conditions, during the color conversion period of grapes, the fruit ears with the same size and consistent growth were selected and soaked with a water suspension preparation containing 2000 mg/L, 1000 mg/L, 500 mg/L and 100 mg/L of 6% AMX compound 1127 for 10 seconds. Soaking in water was regarded as a control. Each experiment was repeated 10 times, each ear was regarded as a duplicate. Samples were collected after harvesting. Samples were collected from the upper, middle and lower parts of each ear in two directions, i.e., glossy and backlit, with 6 grains collected per ear. The samples were preserved in the laboratory at −20° C. for use.
30 pieces of pericarp were evenly taken from up and low portion around the equator of grape fruit by using a hole puncher with a diameter of 10 mm. After they were mixed well and weighed, the anthocyanin in the pericarp was determined. […] The content of anthocyanins (calculated as cornflower-3-glucoside equivalent) was determined by pH differential method and each treatment was repeated three times. Content of anthocyanins (mg/g) X=ΔA×F×M/ε×m, wherein ΔA was absorbance; F was fold of dilution; M is the relative molecular mass 449.2 of cyanidin-3-glucoside, ε is a molar extinction coefficient 26,900 for cyanidin-3-glucoside; m is sample mass.

soybean = experiment: Soil drought experiment, soybean; type: in vivo; conditions: 50 μM
Description: Only one plant was contained in each pot. All soybean plants were long-day cultured at 26° C. Watering was stopped after the plant had three leaves in each of three groups of leaves and the plants with consistent growth were selected for drought treatment. As for corn, watering was stopped during the small trumpet period for drought treatment. […] After a week, the watering was resumed. Soybeans and cotton used in leaf transpiration experiments for compound 0720B were also used for soil drought experiments. Each pot contained only one plant and was filled with the same weight of soil to reduce experimental errors. All of the soybean plants were grown at 26° C. for long-day culture. 16 days after seeding, watering was stopped and the plants with consistent growth were selected for drought treatment. […] Cotton drought experiments were similar to that of the soybean. 23 days after seeding, the watering was stopped, and the plants with consistent growth were selected for drought treatment. […] After 10 days of drought, the photos were taken.

[1] = system: Arabidopsis thaliana Col-0 ecotype seeds; experiment: Seed germination, Col-0; type: in vivo; conditions: 1 μM
From the text: Two lines of plant were sown simultaneously on a single medium of 6 cm diameter, with 15 seeds sown for each line and 4 replicates for each compound. […]

[2] = system: Chinese hamster lung cell (CHL); experiment: In vitro micronucleus experiment; type: cell-based; conditions: -S9; 24 hours
Description: The test substance used in the experiment was AMX compound 1127.
Firstly, CHL cells used in in vitro micronucleus test were tested in IC50 determination experiment. According to IC50 determination results, in vitro micronucleus test dosage was set. 4 doses of 1 μg/ml, 20 μg/ml, 30 μg/ml and 40 μg/ml were set in total, while a negative control and a positive control were also set. The CHL cells were treated for 24 hours under the condition of −S9 and sections were prepared.
The numbers of monocytes, binucleate cells and multinucleated cells in 500 cells per dose were counted and the cytokinesis-block proliferation index (CBPI) and cytotoxicity at each dose were calculated.

PYR1 + HAB1 = target: T1, PYR1 + HAB1 (Arabidopsis thaliana, UniProt O49686); experiment: AlphaScreen experiment, PYR1 + HAB1; type: binding; conditions: column 2; number in brackets; read-out: Half maximum effect concentration EC50 (PYR1 + HAB1)
T1 sequence (O49686 1-191): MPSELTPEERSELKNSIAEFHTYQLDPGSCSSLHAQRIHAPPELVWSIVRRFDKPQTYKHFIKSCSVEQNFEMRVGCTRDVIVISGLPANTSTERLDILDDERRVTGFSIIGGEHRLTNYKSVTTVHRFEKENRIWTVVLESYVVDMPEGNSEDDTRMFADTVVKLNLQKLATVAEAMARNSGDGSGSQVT
T1 sequence (Q9CAJ0 172-511 partner): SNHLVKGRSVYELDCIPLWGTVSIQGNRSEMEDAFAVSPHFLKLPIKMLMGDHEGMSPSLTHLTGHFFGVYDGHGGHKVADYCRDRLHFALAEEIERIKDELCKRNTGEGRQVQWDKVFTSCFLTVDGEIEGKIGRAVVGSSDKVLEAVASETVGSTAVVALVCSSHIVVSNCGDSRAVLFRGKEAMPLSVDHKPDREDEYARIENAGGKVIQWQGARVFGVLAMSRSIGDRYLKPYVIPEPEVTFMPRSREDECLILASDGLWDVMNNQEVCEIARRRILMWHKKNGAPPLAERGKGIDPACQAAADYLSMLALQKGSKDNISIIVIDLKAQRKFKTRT
Description: After incubating for 1.5 hours at room temperature in the dark, it was placed into an Envision Plate Reader (available from Perkin Elmer) under the programmed AlphaScreen procedure for readings.

[3] = system: Yunnan Lily variety Siberia; experiment: Flower preservative experiment; type: in vivo; conditions: aqueous suspension 10 ppm (22.5 μM); after 20 days
Description: The commercially available Yunnan Lily varieties “Siberia” biennial buds were used for test, wherein each branch had 5 buds and 10 leaves, and there was 1 branch per bottle. The branch having buds was inserted into a water suspension preparation containing 10 ppm (22.5 μM) of AMX compound 1127 or into tap water. The flower status was recorded before and after 20 days of treatment.

SMILES: CCCN1C(=O)CCc2cc(NS(=O)(=O)Cc3c(F)c(F)c(C)c(F)c3F)ccc21 [Compound 1127]
- content of anthocyanin in grapes peel (Kyoho grapes): significantly higher than that in the fresh water control group
- growth (soybean; a week of drought, one month after rewatering): grew significantly better than the plants sprayed with DMSO (control) and sprayed with 50 μM ABA
- survival rate (soybean; after rewatering): higher than that in the above two groups
- inhibition effect on germination of Col-0 ecotype seeds compared with control compound [1]: significantly better inhibition effect
- germination of Col-0 ecotype seeds ([1]; six days after seeding): could still inhibit germination of Col-0 ecotype seeds
- micronuclei rate in CHL cells [2]: did not induce an increased micronuclei rate
- EC50 (PYR1 + HAB1): 15 nM
- flowers remained normal [3]: 60%
- leaf withering [3]: no leave withered
- leaves remained green [3]: 70%
